GI50 and TGI data for 38 compounds are collected here from PubChem BioAssay (NCI).

Several values for one entry are separate records, joined by “and”; a condition that tells them apart may be missing. Equal entries are not always repeated.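 Cultured in 96-well plates, cells were exposed to test compound for 48 hours across five concentrations. GI50 marks 50% less growth. TGI: concentration producing complete growth inhibition.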

For the assay, the system named is MDA-MB-468 breast. The assay is described as follows: NCI tumour cell line growth inhibition, 48 h.
As to `Cc1ccc(S(=O)(=O)NC(CCC(=O)Nc2ccc(Cl)cc2)C(=O)Nc2ccc(Cl)cc2)cc1` (stereo not given), the GI50 is 1290 nM and the TGI is 6530 nM.

Consider `O=C1/C(=C\c2ccc(Cl)cc2)CN(C(=S)Nc2ccccc2)C/C1=C\c1ccc(Cl)cc1`, for which the GI50 was 457 nM and the TGI is 1660 nM.

For `O=[N+]([O-])c1ccc(N/N=C\c2cc(Cl)ccc2O)nc1`, the GI50 was 2510 nM and the TGI came to 7250 nM.

Regarding `Cc1cc2c(C)c3cc(C)c(N)cc3nc2cc1N`, the GI50 is 399 nM and the TGI was 2370 nM. The matching figures for `COc1cc[nH]c1/C=C1\C(=O)Nc2ccc(F)c(C#C[C@@H](O)[C@@H](N)[C@@H](C)O)c21`: 476 nM and 1180 nM. The matching figures for `OB([O][Hg][c]1ccccc1)[O][Hg][c]1ccccc1`: 88.5 nM and 303 nM.

In the case of `N#C/C(=C\c1c(-c2ccccc2)[nH]c2ccccc12)C(=O)c1ccc(Cl)cc1`, the GI50 was 527 nM and the TGI was 6290 nM. In the same order, the values of `COc1ccc([C@H]2C(=O)N(c3cc(OC)c(OC)c(OC)c3)[C@@H]2c2ccc(OC)c(O)c2)cc1` are 23 nM and 62.8 nM. In the same order, the values of `O/N=C1\CCc2cc(-c3nc(C4CCNCC4)[nH]c3-c3ccncc3)ccc21` are more than 25000 nM and more than 25000 nM. The matching figures for `CCC1(OC(=O)CN2CCN(CCO)CC2)C(=O)OCc2c1cc1n(c2=O)Cc2cc3ccccc3nc2-1` (stereo not given): 149 nM and 449 nM. For the compound `COC(=O)[C@]12CC[C@@H](C)[C@H](C)[C@@H]1C1=CC[C@@H]3[C@@]4(C)CC(=O)[C@H](O)[C@@]5(C)COC(=C45)C[C@@]3(C)[C@]1(C)CC2`, the GI50 is 14900 nM and the TGI worked out at 30500 nM. In the same order, the values of `CCOC(=O)c1cnc(SCc2ccc(Cl)c(Cl)c2)nc1N1CC1` are 2400 nM and 6140 nM.

On to `CCCCCCCCCCCCCCCCCCNC(=O)[C@H]1CSC(c2ccc(OC)c(F)c2)N1` (stereo not given in full), for which the GI50 was 18600 nM and the TGI was more than 50900 nM. In the same order, the values of `COc1cc2cc(Oc3ccc(NC(=O)Nc4cccc(C(F)(F)F)c4)cc3)c(C)nc2cc1OCCN1CCCCC1` are 1590 nM and 3210 nM. The matching figures for `COc1ccc(-c2cc(-c3ccc(Nc4nc(Nc5ccc(Cl)cc5)nc(Nc5ccc(Cl)cc5)n4)cc3)nc(N)c2C#N)cc1`: 369 nM and 1960 nM. In the same order, the values of `O=C1c2cc3c(cc2-c2c1c1cc(Cl)c(Cl)cc1c(=O)n2CCCn1ccnc1)OCO3` are less than 10 nM and 45.8 nM. Take `O=C1C=C[C@]2(C[C@@H](c3cccc(C(F)(F)F)c3)O[C@@H](c3cccc(C(F)(F)F)c3)O2)O1`: the GI50 was 1670 nM and the TGI was determined as 3590 nM.

Turning to `C1CCC([PH+](C2CCCCC2)C2CCCCC2[PH+](C2CCCCC2)C2CCCCC2)CC1.[Au].[CH-]1CCCCC1C1CCCC[N-]1` (stereo not given), the GI50 was 154 nM and the TGI worked out at 641 nM. Turning to `COc1ccccc1C(=O)/C=C/c1cc2cccc(OC)c2[nH]c1=O`, the GI50 was 104 nM and the TGI is 2010 nM. The matching figures for `COc1cccc(NC(=O)c2sc3nc4c(cc3c2N)CCCC4)c1`: 239 nM and 874 nM. The matching figures for `CCCCCCCCCCCCc1ccc(C(=O)/C=C/C(=O)O)cc1`: 1660 nM and 3350 nM. In the same order, the values of `COc1cc(-c2cc(C(=O)N3CCN(C(=O)c4ccccc4NCc4ccco4)CC3)nc3cc(-c4ccccc4)nn23)cc(OC)c1OC` are 2320 nM and 7200 nM. On to `Cn1cc(-c2ccc(=O)n(Cc3cccc(-c4ncc(OCCN5CCOCC5)cn4)c3)n2)cn1`, for which the GI50 is 14400 nM and the TGI came out at 86800 nM. In the same order, the values of `COc1ccc(N(C)c2nc(C)nc3ccccc23)cc1` are less than 10 nM and less than 10 nM. Take `COc1cc(CCc2cc(NC(=O)c3ccc(N4C[C@@H](C)N[C@@H](C)C4)cc3)n[nH]2)cc(OC)c1`: the GI50 is > 10000 nM and 8100 nM; the TGI is > 10000 nM and 20800 nM. Turning to `Cc1cc(NC(=O)C2c3ccccc3C(=O)N(CC(C)C)C2c2cccs2)no1` (stereo not given), the GI50 was 43800 nM and the TGI was more than 100000 nM.

Turning to `CC1(C)N=C(N)N=C(N)N1c1cccc(/C=C/C=C/c2cccc([N+](=O)[O-])c2)c1`, the GI50 is 346 nM and the TGI was found to be 12000 nM. The matching figures for `COc1ccc(/C(=C/c2cc(OC)c(OC)c(OC)c2)[N+](=O)[O-])cc1`: 2010 nM and 4780 nM. The matching figures for `COc1ccc(/C=C2\CN(C(=O)CCN3CCC(=NO)CC3)C/C(=C\c3ccc(OC)cc3)C2=O)cc1`: 2010 nM and 4580 nM. The matching figures for `Nc1cccc2c1C(=O)N(C1CCC(=O)NC1=O)C2=O` (stereo not given): more than 100000 nM and more than 100000 nM.

As to `CS(=O)(=O)c1nccc(-c2c(-c3ccc(F)c(OCCc4ccc(F)cc4)c3)nc3sccn23)n1`, the GI50 was 1810 nM and the TGI worked out at 3530 nM. The matching figures for `C[C@H]1[C@H](OC(=O)CCC(=O)O)O[C@@H]2O[C@]3(C)CC[C@H]4[C@H](C)CC[C@@H]1[C@@]24OO3`: 2860 nM and 24700 nM. The matching figures for `O=C1[C@H]2Cc3c([nH]c4ccccc34)[C@@H](c3ccc(Br)cc3)N2C(=O)CN1C1CCN(Cc2ccccc2)CC1`: 1140 nM and 4850 nM. For `COc1cc2cc(Oc3ccc(NC(=O)Nc4ccc(F)c(C(F)(F)F)c4)cc3)c(C)nc2cc1OCCN1CCCCC1`, the GI50 is 1470 nM and the TGI worked out at 2920 nM.

With `O=C(Nc1ccncc1)C(=O)c1cn(S(=O)(=O)c2ccc(Br)cc2)c2ccccc12`, the GI50 is 608 nM and the TGI came to 7840 nM. The matching figures for `C[C@@H](c1ccc2nccn2c1)n1nnc2ncc(-c3cnn(C)c3)nc21`: 38600 nM and more than 100000 nM.

As for `O=C(Nc1n[nH]c2nc(-c3ccco3)c(Br)cc12)C1CC1`, the TGI is more than 25000 nM. As to `COc1cc2c(cc1OC)C(=O)C(Br)CC2` (stereo not given), the GI50 is 1280 nM and the TGI came to 3570 nM.
